Experimental findings from ChEMBL document CHEMBL1201862, “PubChem BioAssay data set” (2004) are described below.

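Cultured in 96-well plates, cells were exposed to test compound for 48 hours across five concentrations. At the GI50, growth is halved.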 Calls of active or inactive are those of the source. Rule as the data show it: active = GI50 up to about 1.1 µM and inactive = higher.

Some test systems named below: RPMI-8226; SW-620; T47D; OVCAR-4; ACHN; SF-295; A549; 786-0; CAKI-1; RXF 393; SF-268; OVCAR-3; HOP-62; COLO 205; OVCAR-5; MOLT-4; NCI-H226; SN12C; A498; LOX IMVI.
Experiment in all cases: NCI anticancer screen, dose series, 48 h

For the compound `[N-]=[N+]=Nc1cc(=O)n(-c2ccccc2)c(=O)n1-c1ccccc1`, the GI50 with RPMI-8226, with SW-620, with T47D, in the experiment on OVCAR-4, in the experiment on ACHN and with SF-295 was > 100 µM (inactive) each time. The GI50 in the experiment on A549, with 786-0, in the experiment with CAKI-1, in the experiment with RXF 393, in the experiment on SF-268 and with OVCAR-3 was > 100 µM (inactive) in each case. Moreover, the GI50 with HOP-62, in the experiment on COLO 205, with OVCAR-5, in the experiment on MOLT-4, in the experiment with NCI-H226 and in the experiment with SN12C was > 100 µM (inactive) throughout.
For the compound `C1CN2N3CCCC23C1` (stereo not drawn), the GI50 in the experiment with RPMI-8226, in the experiment on SW-620, with A498, in the experiment on OVCAR-4, with ACHN and in the experiment with SF-295 was > 100 µM (inactive) in each case. The GI50 in the experiment with A549, with LOX IMVI, in the experiment with 786-0, in the experiment with CAKI-1, in the experiment on RXF 393 and in the experiment on SF-268 was > 100 µM (inactive) throughout. Also, the GI50 in the experiment with OVCAR-3, in the experiment with HOP-62, in the experiment with COLO 205, with OVCAR-5, in the experiment on MOLT-4 and with NCI-H226 was > 100 µM (inactive) each time. The GI50 in the experiment with SN12C was > 100 µM (inactive).
As for `NC(=O)CCC(CCC(N)=O)(CCC(N)=O)[N+](=O)[O-]`, the GI50 with RPMI-8226, with SW-620, in the experiment on T47D, in the experiment with ACHN, with SF-295 and in the experiment on A549 was > 100 µM (inactive) throughout. Besides, the GI50 in the experiment on 786-0, in the experiment on CAKI-1, in the experiment on RXF 393, in the experiment on SF-268, with COLO 205 and in the experiment on OVCAR-5 was > 100 µM (inactive) in each case. Besides, the GI50 in the experiment on MOLT-4 was > 100 µM (inactive); in the experiment on NCI-H226 it was 25.4 µM (inactive); in the experiment with SN12C it was > 100 µM (inactive).
With `CCN(CC)CCOc1ccc(N2C(=O)c3cccc4cc([N+](=O)[O-])cc(c34)C2=O)cc1`, the GI50 in the experiment on SW-620 was 7.48 µM (inactive); in the experiment with T47D it was 19.7 µM (inactive); with A498 it was 9.62 µM (inactive); in the experiment on OVCAR-4, 16.3 µM (inactive); in the experiment on ACHN it was 3.1 µM (inactive); in the experiment with SF-295, 6.55 µM (inactive). The GI50 was 0.977 µM (active) in the experiment with A549; 3.88 µM (inactive) in the experiment on LOX IMVI; 4.76 µM (inactive) with 786-0; 11.5 µM (inactive) in the experiment on CAKI-1; 10.9 µM (inactive) in the experiment on SF-268; 1.14 µM (inactive) with HOP-62. Further, the GI50 was 10 µM (inactive) with COLO 205; 2.88 µM (inactive) in the experiment with OVCAR-5; 1.67 µM (inactive) in the experiment on MOLT-4; 3.79 µM (inactive) in the experiment on NCI-H226; 17.4 µM (inactive) in the experiment with SN12C.
Regarding `CCOC(=O)N/N=C(/N)c1cccc(Br)c1`, the GI50 in the experiment with T47D, in the experiment on OVCAR-4, in the experiment on ACHN, with SF-295, in the experiment with A549 and with LOX IMVI was > 100 µM (inactive) throughout. The GI50 in the experiment with 786-0, in the experiment on CAKI-1, in the experiment on RXF 393, in the experiment with SF-268, in the experiment on OVCAR-3 and in the experiment on HOP-62 was > 100 µM (inactive) each time. The GI50 with COLO 205, with OVCAR-5, in the experiment with MOLT-4 and in the experiment with SN12C was > 100 µM (inactive) throughout.
For `O=C(CC1=Nc2nnc(-c3nnc4n3C(=O)C(CC(=O)C3CC3)=N4)n2C1=O)C1CC1`, the GI50 in the experiment with RPMI-8226, in the experiment with SW-620, in the experiment on A498, with OVCAR-4, with ACHN and with SF-295 was > 100 µM (inactive) throughout. The GI50 in the experiment on A549, in the experiment with LOX IMVI, in the experiment with 786-0, in the experiment with CAKI-1, in the experiment on RXF 393 and in the experiment with SF-268 was > 100 µM (inactive) in each case. For the same compound, the GI50 with OVCAR-3, with HOP-62, in the experiment on COLO 205, in the experiment with OVCAR-5, in the experiment on MOLT-4 and in the experiment with NCI-H226 was > 100 µM (inactive) throughout. In the experiment on SN12C, the GI50 is > 100 µM (inactive).
As for `CC(C)Cc1ccc(C(C)/C=C2\CCC(CN(C)C)C2=O)cc1` (stereo not drawn), the GI50 is 1.56 µM (inactive) in the experiment with RPMI-8226; 6.82 µM (inactive) with SW-620; 19.5 µM (inactive) in the experiment with A498; 17 µM (inactive) in the experiment on OVCAR-4; 19.4 µM (inactive) in the experiment on ACHN; 14.7 µM (inactive) in the experiment with SF-295. The GI50 in the experiment with A549 is 27.7 µM (inactive); in the experiment with LOX IMVI, 6.97 µM (inactive); in the experiment on 786-0 it was 2.96 µM (inactive); with CAKI-1, 17.5 µM (inactive); with RXF 393 it was 20.1 µM (inactive); in the experiment on SF-268 it was 11.6 µM (inactive). Besides, the GI50 in the experiment on OVCAR-3 was 12.7 µM (inactive); in the experiment with HOP-62, 9.23 µM (inactive); in the experiment on COLO 205 it was 11.6 µM (inactive); with OVCAR-5 it was 23 µM (inactive); with MOLT-4, 2.64 µM (inactive); with NCI-H226, 20.2 µM (inactive). Further, the GI50 in the experiment with SN12C was 10 µM (inactive).
Consider `CCOC(=O)C(=O)C=P(c1ccccc1)(c1ccccc1)c1ccccc1`, for which the GI50 in the experiment with RPMI-8226, in the experiment with SW-620, in the experiment with A498, in the experiment on OVCAR-4, in the experiment with ACHN and with SF-295 was > 100 µM (inactive) throughout. The GI50 with A549, with LOX IMVI, in the experiment with 786-0, in the experiment with CAKI-1, in the experiment on RXF 393 and with SF-268 was > 100 µM (inactive) throughout. Moreover, the GI50 with OVCAR-3, with HOP-62, in the experiment on COLO 205, in the experiment with OVCAR-5, in the experiment with MOLT-4 and with NCI-H226 was > 100 µM (inactive) each time. In the experiment on SN12C, the GI50 was > 100 µM (inactive).
As to `CN(C)C(=O)Oc1ccc(C(=S)Nc2ccccc2)cc1Br`, the GI50 in the experiment on RPMI-8226 was 22.2 µM (inactive); with SW-620, 37.4 µM (inactive); in the experiment with T47D it was 25 µM (inactive); in the experiment with OVCAR-4, 19.1 µM (inactive); with ACHN, 30.5 µM (inactive); in the experiment on SF-295, 5.11 µM (inactive). Further, the GI50 was 33 µM (inactive) in the experiment with A549; 20.9 µM (inactive) in the experiment with LOX IMVI; 62.8 µM (inactive) in the experiment with 786-0; 63.7 µM (inactive) in the experiment with CAKI-1; 6.9 µM (inactive) with SF-268; 30.1 µM (inactive) with OVCAR-3. Also, the GI50 in the experiment on HOP-62 was 45.1 µM (inactive); in the experiment on COLO 205, 24.2 µM (inactive); with OVCAR-5 it was 41.9 µM (inactive); in the experiment with MOLT-4 it was 13.2 µM (inactive).
As for `O=C1[C@@H]2C[C@@H](O)CN2C(=O)c2ccccc2N1CCCO`, the GI50 in the experiment on RPMI-8226, in the experiment on SW-620, in the experiment with T47D, with A498, in the experiment with ACHN and in the experiment with SF-295 was > 100 µM (inactive) throughout. For the same compound, the GI50 in the experiment on A549, in the experiment with LOX IMVI, in the experiment with 786-0, in the experiment with SF-268, in the experiment on OVCAR-3 and in the experiment with HOP-62 was > 100 µM (inactive) in each case. Moreover, the GI50 in the experiment with OVCAR-5 was > 100 µM (inactive); in the experiment with MOLT-4 it was 82 µM (inactive); with NCI-H226 it was > 100 µM (inactive); in the experiment with SN12C, > 100 µM (inactive).
Consider `COc1cc(-c2oc3c(OC)cc(OC)c(O)c3c(=O)c2OC)cc(OC)c1OC`, for which the GI50 was > 100 µM (inactive) in the experiment with RPMI-8226; 6.28 µM (inactive) with SW-620; 3.76 µM (inactive) in the experiment with T47D; 2.23 µM (inactive) with OVCAR-4; 8.49 µM (inactive) in the experiment with ACHN; 2.59 µM (inactive) in the experiment with SF-295. Further, the GI50 in the experiment with A549 is > 100 µM (inactive); with LOX IMVI, 3.24 µM (inactive); in the experiment with 786-0, 4.02 µM (inactive); in the experiment on CAKI-1 it was 14.4 µM (inactive); with RXF 393, 8.28 µM (inactive); with SF-268 it was 6.95 µM (inactive). Also, the GI50 in the experiment with OVCAR-3 was 4.79 µM (inactive); with HOP-62, 2.06 µM (inactive); in the experiment with COLO 205, > 100 µM (inactive); with OVCAR-5, > 100 µM (inactive); with MOLT-4, > 100 µM (inactive); in the experiment with NCI-H226, > 100 µM (inactive). Besides, the GI50 in the experiment with SN12C was > 100 µM (inactive).
